{"source": "paper PMC10600247", "about": "“Impact of C- and N-terminal protection on the stability, metal chelation and antimicrobial properties of calcitermin” (Scientific Reports, 2023)", "test": "Potentiometry: protonation of the ligand", "type": "physicochemical", "details": "T = 298 K, I = 0.1 M (KCl)", "text": "Stability constants for proton and metal complexes were obtained from pH-metric titration curves registered at T = 298 K and ionic strength 0.1 M (KCl). The potentiometric apparatus was previously described. Solutions were titrated with 0.1 M carbonate-free KOH. The electrode was daily calibrated for hydrogen ion concentration by titrating HNO3 with the standard base solution, under the same experimental conditions as above. The asymmetry potential and the slope of the electrode couple were computed by means of […][41] and Glee[42] programs. The purities and exact concentrations of the ligand solutions were determined by the Gran method. The […][44] program was employed for the overall formation constant (β) calculations, referred to the following equilibrium equation: pM + qL + rH ⇆ MpLqHr (charges omitted; p is 0 in the case of ligand protonation; r can be negative). The computed standard deviations (referring to random errors only) were given by the program itself and are shown in parentheses as uncertainties on the last significant figure. Hydrolysis constants for metal ions were taken from the literature[45],[46]. The distribution and competition diagrams were computed using the HYSS program.\n1. Wild-type calcitermin: thermodynamic data\nWild-type calcitermin (WT) has been previously investigated by our research group in aqueous solutions and ionic medium NaClO4.1 For the sake of comparison, potentiometric studies of WT and its copper and zinc complexes have been performed in a different ionic medium (KCl 0.1 M). The study of the speciation under different experimental conditions, changing ionic medium and metal-ligand ratio, is essential to comprehensively describe the thermodynamics of calcitermin, which is usually found in multicomponent media like biological fluids.\nTable S1. Equilibrium constants for protonation of WT and its Cu2+ and Zn2+ complex formation at T = 298 K and I = 0.1 M (KCl). Values in parentheses are standard deviations on the last significant figure.", "note": "Residues, ends and D or L forms follow the SMILES beside them."}
{"smiles": "CC[C@H](C)[C@H](NC(=O)[C@H](C)NC(=O)[C@@H](N)C(C)C)C(=O)N[C@@H](C)C(=O)N[C@@H](CC(C)C)C(=O)N[C@@H](CCCCN)C(=O)N[C@@H](C)C(=O)N[C@@H](C)C(=O)N[C@@H](Cc1c[nH]cn1)C(=O)N[C@@H](Cc1ccc(O)cc1)C(=O)N[C@@H](Cc1c[nH]cn1)C(=O)N[C@H](C(=O)N[C@@H](Cc1c[nH]cn1)C(=O)N[C@@H](CCCCN)C(=O)N[C@@H](CCC(=O)O)C(=O)O)[C@@H](C)O", "note": "[WT, VAIALKAAHYHTHKE, reference compound] (H-VAIALKAAHYHTHKE-OH)", "values": [{"measurement": "protonation logK H2L", "result": 10.53}, {"measurement": "protonation logK H3L", "result": 9.50}, {"measurement": "protonation logK H4L", "result": 7.73}, {"measurement": "protonation logK H5L", "result": 6.93}, {"measurement": "protonation logK H6L", "result": 6.33}, {"measurement": "protonation logK H7L", "result": 5.65}, {"measurement": "protonation logK H8L", "result": 4.22}, {"measurement": "protonation logK H9L", "result": 2.93}, {"measurement": "protonation logK HL", "result": 10.61}, {"measurement": "protonation logβ H2L", "result": "21.14(2)"}, {"measurement": "protonation logβ H3L", "result": "30.64(4)"}, {"measurement": "protonation logβ H4L", "result": "38.38(4)"}, {"measurement": "protonation logβ H5L", "result": "45.31(4)"}, {"measurement": "protonation logβ H6L", "result": "51.64(4)"}, {"measurement": "protonation logβ H7L", "result": "57.29(4)"}, {"measurement": "protonation logβ H8L", "result": "61.51(4)"}, {"measurement": "protonation logβ H9L", "result": "64.44(5)"}, {"measurement": "protonation logβ HL", "result": "10.61(6)"}]}
